AUC and IC50 data for three molecules are collected here from ChEMBL document CHEMBL1151575, “J-104,123, a novel and orally-active inhibitor of squalene synthase: Stereoselective synthesis and cholesterol lowering effects in dogs” (Bioorg Med Chem Lett, 1996).

Data set [1] is described as follows: Area under the curve for compound was evaluated in dog at a dose of 20 mg/kg. The data set is classed as ADME, organism-based, Canis lupus familiaris. More on the design: dose 20 mg/kg. The settings on record: in vivo.
The target in data set [2] is T1, Squalene synthase (Homo sapiens, UniProt P37268).
T1 sequence (P37268 whole entry): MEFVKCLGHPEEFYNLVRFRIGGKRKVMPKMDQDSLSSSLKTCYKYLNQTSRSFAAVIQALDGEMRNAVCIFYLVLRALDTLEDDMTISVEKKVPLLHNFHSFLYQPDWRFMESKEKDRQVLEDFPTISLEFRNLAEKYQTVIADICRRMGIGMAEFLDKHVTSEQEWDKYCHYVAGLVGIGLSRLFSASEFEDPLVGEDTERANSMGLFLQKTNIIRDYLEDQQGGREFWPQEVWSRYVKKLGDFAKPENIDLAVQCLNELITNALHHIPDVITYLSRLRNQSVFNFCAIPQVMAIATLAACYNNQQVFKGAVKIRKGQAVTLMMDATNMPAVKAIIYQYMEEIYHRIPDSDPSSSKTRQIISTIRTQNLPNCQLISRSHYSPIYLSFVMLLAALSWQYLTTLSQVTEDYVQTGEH
Nature of the data set: Inhibitory activity against squalene synthase (SQS) obtained from HepG2 cells. The data set is classed as cell-based.

Data set [3] in a line: Area under the curve for compound was evaluated in dog at a dose of 10 mg/kg. The data set is classed as ADME, organism-based, Canis lupus familiaris. Details: dose 10 mg/kg. Particulars: in vivo.

The AUC is concentration integrated over time. A high value points to high exposure. The IC50 is the concentration that gives 50% inhibition. In data set [1], `C[C@@H](CC(=O)O)CC(=O)N[C@@H](C)[C@H](/C=C/c1ccc2ccccc2c1)Cc1ccc(Cl)c(Cl)c1` returned an AUC of 54000 ng·h/mL. In addition, in data set [2], the IC50 was found to be 2.5 nM. In data set [2], `C[C@@H](CC(=O)O)CC(=O)N[C@@H](C)[C@@H](Cc1ccc(Cl)c(Cl)c1)c1ccc(-c2ccccc2)c(F)c1` gave an IC50 of 3.9 nM. In data set [3], this molecule gave an AUC of 9900 ng·h/mL. Regarding `C[C@H](NC(=O)C[C@@H](CC(=O)O)C(=O)O)[C@@H](Cc1ccc(Cl)c(Cl)c1)c1ccc(-c2ccccc2)c(F)c1`, the area under the curve (AUC) in data set [1] stood at 900 ng·h/mL.
